Measurements taken from patent US20240287138A1, “CYCLIC PEPTIDES FOR INHIBITING TNF RECEPTOR 1 ACTIVITY” (Merck Sharp & Dohme LLC, priority 2023, published 2024).
Numbered stars: 1 amine (or outer) side, 2 acyl side, 3 side chain; on linkers, the order of the positions; unused ones are H or OH. Bridge positions count the residues as written; N and C are the ends. Square brackets hold non-standard residues; d marks the D form. Peptide text beside a SMILES is read from it. * marks the point of attachment. Trp(βS-Me,7-OMe) = COc1cccc2c([C@H](C)[C@H](N)C(=O)O)c[nH]c12; X21 = COc1cccc2c([C@H](C)[C@H](N[*:1])C(=O)[*:2])c(C)[nH]c12; Trp(4-Cl) = N[C@@H](Cc1c[nH]c2cccc(Cl)c12)C(=O)O; Trp(7-CN) = N#Cc1cccc2c(C[C@H](N)C(=O)O)c[nH]c12; Trp(7-Cl) = N[C@@H](Cc1c[nH]c2c(Cl)cccc12)C(=O)O; Phe(3-CONH2) = NC(=O)c1cccc(C[C@H](N)C(=O)O)c1; Phe(4-CONH2) = NC(=O)c1ccc(C[C@H](N)C(=O)O)cc1; Phe(4-COOH) = N[C@@H](Cc1ccc(C(=O)O)cc1)C(=O)O; Trp(7-aza) = N[C@@H](Cc1c[nH]c2ncccc12)C(=O)O; X3 = C[C@H](c1ccncc1)[C@H](N[*:1])C(=O)[*:2]; Phe(4-CH2NH2) = NCc1ccc(C[C@H](N)C(=O)O)cc1; Pip(5R-OH) = O=C(O)[C@@H]1CC[C@@H](O)CN1; αMeW = C[C@](N)(Cc1c[nH]c2ccccc12)C(=O)O; X1 = O=C([C@@H]1CC[C@H](N[*:1])C1)[*:2]; Pip(4-aza) = O=C(O)[C@@H]1CNCCN1; 4Pal = N[C@@H](Cc1ccncc1)C(=O)O; NMeE = CN[C@@H](CCC(=O)O)C(=O)O; dHyp = O=C(O)[C@H]1C[C@H](O)CN1; αMeS = C[C@](N)(CO)C(=O)O; Nle = CCCC[C@H](N)C(=O)O; Sar = CNCC(=O)O; X22 = C1CC1C*

Target: T1, TNFα-induced NF-κB signal transduction pathway (TNFR1 signaling) in THP-1 cells (Homo sapiens, UniProt P19438)
T1 sequence (P19438 30-455): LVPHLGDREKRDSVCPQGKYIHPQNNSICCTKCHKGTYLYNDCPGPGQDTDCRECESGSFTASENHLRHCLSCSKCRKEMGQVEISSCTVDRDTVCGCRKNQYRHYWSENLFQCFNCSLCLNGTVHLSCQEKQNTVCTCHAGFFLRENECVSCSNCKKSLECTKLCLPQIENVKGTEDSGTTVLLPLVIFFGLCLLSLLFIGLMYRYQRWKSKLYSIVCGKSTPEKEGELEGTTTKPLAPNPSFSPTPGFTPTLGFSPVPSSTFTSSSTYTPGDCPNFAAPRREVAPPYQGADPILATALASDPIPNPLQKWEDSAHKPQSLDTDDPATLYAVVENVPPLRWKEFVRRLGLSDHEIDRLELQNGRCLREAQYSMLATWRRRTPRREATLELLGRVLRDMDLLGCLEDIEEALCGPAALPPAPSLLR
Assay: THP-1 Lucia NF-κB reporter cell assay, inhibition of TNFα-induced NF-κB signaling
Assay type: cell-based
Conditions: THP-1 NF-κB Lucia reporter cells, 10 ng/mL TNFα, 16-18 h, secreted luciferase; read-out: THP-1 IC50
Summary of the method: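 THP-1 Lucia NF-κB cells, 20k/well, no selection antibiotics; peptide pre-inc 1 h 37 °C; + recombinant human TNFα 10 ng/mL final; o.n.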

Row | SMILES | IC50
1 | CCCC[C@@H]1NC(=O)CSC[C@@H](C(N)=O)NC(=O)[C@](C)(Cc2c[nH]c3ccccc23)NC(=O)CN(C)C(=O)[C@H](Cc2ccc(O)cc2)NC(=O)[C@H](Cc2cccc(C(N)=O)c2)NC(=O)[C@](C)(CO)NC(=O)[C@H](Cc2c[nH]c3c(Cl)cccc23)NC(=O)[C@H](Cc2ccncc2)NC(=O)[C@H](CC(N)=O)NC(=O)[C@H](CCC(=O)O)N(C)C(=O)[C@H](Cc2c[nH]c3ncccc23)NC(=O)[C@H](CO)NC(=O)[C@H](Cc2ccc(CN)cc2)NC1=O [SEQ ID NO. 205] ({CH2CO}-[Nle][Phe(4-CH2NH2)]S[Trp(7-aza)][NMeE]N[4Pal][Trp(7-Cl)][αMeS][Phe(3-CONH2)]Y[Sar][αMeW]C-NH2; thioether N-14) | 7.2 nM
2 | CCCC[C@@H]1NC(=O)CSC[C@@H](C(N)=O)NC(=O)[C@H]([C@@H](C)c2c[nH]c3c(OC)cccc23)NC(=O)CN(C)C(=O)[C@H](Cc2ccc(O)cc2)NC(=O)[C@H](Cc2ccc(C(=O)O)cc2)NC(=O)[C@](C)(CO)NC(=O)[C@H](Cc2c[nH]c3c(Cl)cccc23)NC(=O)[C@H](Cc2ccncc2)NC(=O)[C@H](CC(N)=O)NC(=O)[C@H](CCC(=O)O)N(C)C(=O)[C@H](Cc2c[nH]c3ncccc23)NC(=O)[C@H](CO)NC(=O)[C@H]([C@H](C)c2ccncc2)NC1=O [SEQ ID NO. 143] ({CH2CO}-[Nle][X3]S[Trp(7-aza)][NMeE]N[4Pal][Trp(7-Cl)][αMeS][Phe(4-COOH)]Y[Sar][Trp(βS-Me,7-OMe)]C-NH2; thioether N-14) | 2.2 nM
3 | CCCC[C@@H]1NC(=O)[C@@H]2CC[C@@H](C2)NC(=O)[C@H]([C@@H](C)c2c[nH]c3c(OC)cccc23)NC(=O)CN(C)C(=O)[C@H](Cc2ccc(O)cc2)NC(=O)[C@H](Cc2ccc(C(=O)O)cc2)NC(=O)[C@](C)(CO)NC(=O)[C@H](Cc2c[nH]c3c(Cl)cccc23)NC(=O)[C@H](Cc2ccc(C(=O)O)cc2)NC(=O)[C@H](CC(N)=O)NC(=O)[C@H](CCC(=O)O)N(C)C(=O)[C@H](Cc2c[nH]c3ccccc23)NC(=O)[C@@H]2CNCCN2C(=O)[C@H](Cc2ccncc2)NC1=O [SEQ ID NO. 288] (cyclo([4Pal][Pip(4-aza)]W[NMeE]N[Phe(4-COOH)][Trp(7-Cl)][αMeS][Phe(4-COOH)]Y[Sar][Trp(βS-Me,7-OMe)][X1][Nle])) | 4.2 nM
4 | CCCC[C@@H]1NC(=O)[C@@H]2CC[C@@H](C2)NC(=O)[C@H]([C@@H](C)c2c(C)[nH]c3c(OC)cccc23)NC(=O)CN(C)C(=O)[C@H](Cc2ccc(C(=O)O)cc2)NC(=O)[C@H](Cc2ccc(C(N)=O)cc2)NC(=O)[C@](C)(CO)NC(=O)[C@H](Cc2c[nH]c3c(Cl)cccc23)NC(=O)[C@H](Cc2ccc(C(=O)O)cc2)NC(=O)[C@H](CC(N)=O)NC(=O)[C@H]2C[C@H](O)CN2C(=O)[C@H](Cc2c[nH]c3ccccc23)NC(=O)[C@@H]2CC[C@@H](O)CN2C(=O)[C@H](Cc2ccncc2)NC1=O [SEQ ID NO. 106] (cyclo([4Pal][Pip(5R-OH)]W[dHyp]N[Phe(4-COOH)][Trp(7-Cl)][αMeS][Phe(4-CONH2)][Phe(4-COOH)][Sar][X21][X1][Nle])) | 0.6 nM
5 | COc1cccc2c([C@H](C)[C@@H]3NC(=O)CN(C)C(=O)[C@H](Cc4ccc(C(=O)O)cc4)NC(=O)[C@H](Cc4ccc(C(N)=O)cc4)NC(=O)[C@](C)(CO)NC(=O)[C@H](Cc4c[nH]c5c(C#N)cccc45)NC(=O)[C@H](Cc4ccc(C(=O)O)cc4)NC(=O)[C@H](CC(N)=O)NC(=O)[C@H]4C[C@H](O)CN4C(=O)[C@H](Cc4c[nH]c5ncccc45)NC(=O)[C@@H]4CC[C@@H](O)CN4C(=O)[C@H](Cc4ccncc4)NC(=O)[C@H](COCC4CC4)NC(=O)[C@@H]4CC[C@@H](C4)NC3=O)c[nH]c12 [SEQ ID NO. 149] (cyclo([4Pal][Pip(5R-OH)][Trp(7-aza)][dHyp]N[Phe(4-COOH)][Trp(7-CN)][αMeS][Phe(4-CONH2)][Phe(4-COOH)][Sar][Trp(βS-Me,7-OMe)][X1]S(X22))) | 1.3 nM
6 | CN1CC(=O)N[C@@H](Cc2c[nH]c3cccc(Cl)c23)C(=O)N[C@H](C(N)=O)CSCC(=O)N[C@@H](CCC(N)=O)C(=O)N[C@@H](Cc2ccncc2)C(=O)N[C@@H](CO)C(=O)N[C@@H](Cc2c[nH]c3ncccc23)C(=O)N(C)[C@@H](CCC(=O)O)C(=O)N[C@@H](CC(N)=O)C(=O)N[C@@H](Cc2ccncc2)C(=O)N[C@@H](Cc2c[nH]c3c(Cl)cccc23)C(=O)N[C@@](C)(CO)C(=O)N[C@@H](Cc2ccc(C(=O)O)cc2)C(=O)N[C@@H](Cc2ccc(O)cc2)C1=O [SEQ ID NO. 239] ({CH2CO}-Q[4Pal]S[Trp(7-aza)][NMeE]N[4Pal][Trp(7-Cl)][αMeS][Phe(4-COOH)]Y[Sar][Trp(4-Cl)]C-NH2; thioether N-14) | 1.4 nM
